Experimental data taken from patent US9040717B2, “Pyrazole-amide compounds and pharmaceutical use thereof” (JAPAN TOBACCO INC., priority 2013, dated 2015).

Tests used:
[1] = tested on: adipose tissue PDH activity; test: Ex vivo PDH activation assay, adipose tissue; type: in vivo, Sprague-Dawley rats
Procedure: (§1) The action of test compound on tissue PDH activity was evaluated. NADH production was detected via p-iodonitrotetrazolium violet (INT)-coupled system to measure PDH activity.
(§2) Normal male Sprague-Dawley rats were randomly allocated to the vehicle group and the test compound groups. The vehicle (0.5% aqueous methylcellulose solution, 5 mL/kg) or the test compound was orally administered to the rats. At 5 or 20 hr after administration, the rats were anesthetized with an intraperitoneal injection of sodium pentobarbital (60 mg/kg), and liver slices and epididymal adipose tissues were collected.
(§3) To the adipose tissues were rapidly added 3 volumes of an ice-cold homogenization buffer, and the mixtures were homogenized using a Polytron homogenizer. The homogenates were centrifuged at 600×g, 4° C. for 10 min to obtain the supernatant. The supernatants were centrifuged at 16,000×g, 4° C. for 10 min to collect the precipitates. The precipitates were washed by resuspension in the homogenization buffer (1 mL) and centrifuged in the same manner. The precipitates were frozen with liquid nitrogen and stored at −80° C. as the adipose tissue mitochondrial fraction.
(§4) The mitochondrial fractions were thawed and suspended with the sample buffer (0.25 mol/L sucrose, 20 mmol/L tris(hydroxymethyl)aminomethane hydrochloride (pH 7.5), 50 mmol/L potassium chloride, and 1 mL/L 4-(1,1,3,3-tetramethylbutyl)phenyl-polyethylene glycol (Triton X-100)). Active PDH activity (PDHa activity) and total PDH activity (PDHt activity) were measured to evaluate the PDH activity. For the measurement of the PDHt activity, equal amounts of the mitochondrial suspension and the activation buffer (0.25 mol/L sucrose, 20 mmol/L tris(hydroxymethyl)aminomethane hydrochloride (pH 7.5), 50 mmol/L potassium chloride, 1 mL/L Triton X-100, 4 mmol/L calcium chloride, 40 mmol/L magnesium chloride, 10 mmol/L sodium dichloroacetate) were mixed, and the mixtures were incubated at 37° C. for 10 min. Forty microliters of the mitochondrial suspensions diluted with a sample buffer were added to a 96-well microplate for activity measurement and blank measurement. Then 180 μL of the reaction mixture (0.056 mmol/L potassium phosphate buffer (pH 7.5), 5.6 mmol/L DL-carnitine, 2.8 mmol/L NAD, 0.22 mmol/L thiamin pyrophosphate, 0.11 mmol/L Coenzyme A, 1.1 mL/L Triton X-100, 1.1 mmol/L magnesium chloride, 1.1 g/L bovine serum albumin, 0.67 mmol/L INT, 7.2 μmol/L phenazine methosulfate, 28 mmol/L sodium oxamate) was added to each well, and then 20 μL of 50 mmol/L sodium pyruvate for activity measurement or water for blank measurement were added. The mixtures were incubated at room temperature under shading. The absorbances at 500-750 nm, which were attributable to reduction of INT, the final electron acceptor, were measured using a microplate reader over time and the changes in the absorbance were calculated. The PDH activity was calculated by subtraction of the change in absorbance of the blank well from that of the activity measurement well. The percentage of the PDHa activity to the PDHt activity was calculated and taken as an index of the PDH activation.

[2] = Metabolic stability test in rat liver microsome; type: in vitro ADME
liver PDH activity = test: Ex vivo PDH activation assay, liver; type: in vivo, Sprague-Dawley rats
Procedure: as §1, §2
as §3, with “liver slices” for “adipose tissues”, “9” for “3”, “of” for “of an”, “buffer (0.25 mol/L sucrose, 5 mmol/L tris(hydroxymethyl)aminomethane hydrochloride (pH 7.5), 2 mmol/L EDTA),” for “buffer,”, “supernatants (1 mL)” for “supernatants”, “liver” for “adipose tissue”
as §4

[3] = Table 2, 5 hr after oral 3 mg/kg, non-fasting SD rats, vehicle 31 ± 10, mean ± S.D. (n = 3)
[4] = Table 2, 20 hr after oral 3 mg/kg, non-fasting SD rats, vehicle 31 ± 10, mean ± S.D. (n = 3)
[5] = Table 2, 5 hr after oral 3 mg/kg, non-fasting SD rats, vehicle 13 ± 3, mean ± S.D. (n = 3)
[6] = Table 2, 20 hr after oral 3 mg/kg, non-fasting SD rats, vehicle 13 ± 3, mean ± S.D. (n = 3)

CC(C)(O)CCOc1cc(-c2cnn(C(C)(C)C(N)=O)c2)c2c(c1)[C@@](O)(C(F)(F)F)c1ccccc1-2 [Compound (2), 2-{4-[(9R)-9-hydroxy-2-(3-hydroxy-3-methylbutyloxy)-9-(trifluoromethyl)-9H-fluoren-4-yl]-1H-pyrazol-1-yl}-2-methylpropanamide]
PDHa activity (% of PDHt activity) ([1]; Table 3, 5 hr after oral 3 mg/kg, SD rats, vehicle 42 ± 4, mean ± S.D. (n = 3)): 88 ± 11 % of PDHt activity | PDHa activity (% of PDHt activity) ([1]; Table 3, 20 hr after oral 3 mg/kg, SD rats, vehicle 42 ± 4, mean ± S.D. (n = 3)): 61 ± 15 % of PDHt activity | Stability in liver microsome (residual ratio %) ([2]; 10 min): 98.8% | Stability in liver microsome (residual ratio %) ([2]; 60 min): 100.0% | PDHa activity (% of PDHt activity) (liver PDH activity; Table 3, 5 hr after oral 3 mg/kg, SD rats, vehicle 28 ± 6, mean ± S.D. (n = 3)): 74 ± 12 % of PDHt activity | PDHa activity (% of PDHt activity) (liver PDH activity; Table 3, 20 hr after oral 3 mg/kg, SD rats, vehicle 28 ± 6, mean ± S.D. (n = 3)): 50 ± 16 % of PDHt activity

CC(C)(O)CCCOc1cc(-c2cnn(C(C)(C)C(N)=O)c2)c2c(c1)[C@@](O)(C(F)(F)F)c1ccccc1-2 [Compound (3), 2-{4-[(9R)-9-hydroxy-2-(4-hydroxy-4-methylpentyloxy)-9-(trifluoromethyl)-9H-fluoren-4-yl]-1H-pyrazol-1-yl}-2-methylpropanamide]
PDHa activity (% of PDHt activity) [1, 3]: 70 ± 9 % of PDHt activity | PDHa activity (% of PDHt activity) [1, 4]: 42 ± 3 % of PDHt activity | Stability in liver microsome (residual ratio %) ([2]; 10 min): 102.7% | Stability in liver microsome (residual ratio %) ([2]; 60 min): 95.8% | PDHa activity (% of PDHt activity) (liver PDH activity; [5]): 56 ± 8 % of PDHt activity | PDHa activity (% of PDHt activity) (liver PDH activity; [6]): 32 ± 9 % of PDHt activity

NC(=O)Cn1cc(-c2cc(OCCC34CC5CC(CC(O)(C5)C3)C4)cc3c2-c2ccccc2[C@]3(O)C(F)(F)F)cn1 [Compound (A), 2-(4-{(9R)-9-Hydroxy-2-[2-(3-hydroxyadamantan-1-yl)ethoxy]-9-(trifluoromethyl)-9H-fluoren-4-yl}-1H-pyrazol-1-yl)acetamide]
PDHa activity (% of PDHt activity) [1, 3]: 32 ± 14 % of PDHt activity | PDHa activity (% of PDHt activity) [1, 4]: 24 ± 7 % of PDHt activity | Stability in liver microsome (residual ratio %) ([2]; 10 min): 24.8% | Stability in liver microsome (residual ratio %) ([2]; 60 min): 0.0% | PDHa activity (% of PDHt activity) (liver PDH activity; [5]): 35 ± 6 % of PDHt activity | PDHa activity (% of PDHt activity) (liver PDH activity; [6]): 16 ± 10 % of PDHt activity

Cn1cc(-c2cc(OCC(C)(C)O)cc3c2-c2ccccc2[C@]3(O)C(F)(F)F)cn1 [Compound (B), (9R)-2-(2-Hydroxy-2-methylpropoxy)-4-(1-methyl-1H-pyrazol-4-yl)-9-(trifluoromethyl)-9H-fluoren-9-ol]
PDHa activity (% of PDHt activity) [1, 3]: 59 ± 5 % of PDHt activity | PDHa activity (% of PDHt activity) [1, 4]: 30 ± 4 % of PDHt activity | Stability in liver microsome (residual ratio %) ([2]; 10 min): 101.1% | Stability in liver microsome (residual ratio %) ([2]; 60 min): 92.1% | PDHa activity (% of PDHt activity) (liver PDH activity; [5]): 43 ± 7 % of PDHt activity | PDHa activity (% of PDHt activity) (liver PDH activity; [6]): 10 ± 3 % of PDHt activity
